Consider one molecule from US20230172901A1, “COMPOSITIONS AND METHODS FOR THE PROPHYLAXIS AND TREATMENT OF FIBROTIC AND INFLAMMATORY CONDITIONS” (GRETALS AUSTRALIA PTY LTD, priority 2020, published 2023).

SMILES strings stand for the structures.

This assay concerns sheep model for pulmonary fibrosis, bleomycin-injured lung segments. The assay is described as follows: Example 2: segmental lung compliance (Cseg) in bleomycin-injured sheep lung segments. Type of assay: in vivo. The protocol:
Segmental compliance (Cseg) was assessed using pressure responses to flow in the different segments as indicated FIG. 2 in awake, consciously breathing sheep using a wedged-bronchoscope technique. Briefly, a custom-built Segmental Lung Airway Monitoring (SLAM) System was used to monitor the segmental flow and pressure. After first determining the bronchoscope resistance to the set flow, the bronchoscope was wedged into an airway in the lung segment of interest and a constant flow (6 mL/s) of 5% C02 in air was passed through the working channel of the bronchoscope.
Segmental lung compliance was calculated. Briefly, after the bronchoscope was wedged into the specific region of the lung, pressure was allowed to reach a steady state. After approximately 5 s at steady state, airflow was interrupted turning off the airflow supply. Segmental compliance was then calculated from the pressure-flow decay curve generated from this procedure. The process was repeated 3 times for each segment and expressed as an average value for Cseg. The pressure was recorded by a PM-1000 Transducer Amplifiers (CWE Inc., Admore, USA) and flow was recorded using a mass flow meter (824-S, Sierra Instruments, Monterey, USA). Data were acquired with Data Acquisition Card (PCI-6233; National Instruments Corp., Austin, USA) and was analysed with the SLAM system (Latitude E6520, Dell Computer Corporation, Texas USA and LabVIEW, National Instruments Corp., Austin, USA). All resistance measurements were corrected for the resistance of flow through the working channel of the bronchoscope.
In this study, a total of 10 sheep were used. Fibrosis in two lung segments of each sheep in a similar manner as performed in Example 1 herein. Using this procedure (as detailed further below) the fibrosis was confined to small, isolated regions in the lungs leaving the remaining 90-95% of the healthy unaffected lungs to undertake normal respiratory function.
All sheep (n=10) in the study were challenged with 2 single doses of bleomycin (3 units) per lung segment, a fortnight apart and the animals were kept for a little over 5 weeks after the final bleomycin dose. Bleomycin is a well-known agent for inducing fibrosis in the lungs. The administration procedure involves inserting a bronchoscope into lung segments in the right and left lung, and then slowly infusing the bleomycin into two segments as shown in FIG. 2 via the bronchoscope biopsy port. […]
Lung function was assessed in all test lung-segments (left and right caudal lobes, and medial lobe in each sheep). The functional capacity of the lung segments was measured through the endoscope using the procedure outlined in Example 1 herein. The lung function parameter assessed in this study is referred to as compliance in the lung segment (abbreviated to Cseg). […]

For `O=C1CC(c2ccccc2)Oc2cc(O)cc(O)c21` (stereo not shown) [pinocembrin, 5,7-Dihydroxy-2-Phenyl-2,3-Dihydro-4H-Chromen-4-One], under “4 weekly doses of 7 mg, n=10 sheep”, the “lung function in lung segments injured by bleomycin (summary)” value is recorded as “significantly improved”. The “sheep with improved function (Cseg) in bleomycin-damaged, pinocembrin-treated lung segments” value (individual sheep data, 4 weekly infusions of 7 mg, 10 sheep) is given as “eight out of ten”. Moreover, the “percentage change in compliance from baseline” value (week 0 to week 11, after four weekly administrations, n=10 sheep) is recorded as “significantly improved”. Besides, for the setting “week 11, 7 mg in 10% DMSO infused into bleomycin-injured caudal segment, 4 weekly doses, n=10 sheep”, the “mean segmental compliance (Cseg) compared with untreated healthy control lung segments” value is listed as “not significantly different from the untreated healthy control lung segments”.
